Test results reported in ChEMBL document CHEMBL5724914, “Linking interpersonal differences in gut microbiota composition and drug biotransformation activity” (2024).

Legend:
[1] = (§1) The drug is tested on Z-023 corresponding to metagenome with ENA study accession number: PRJEB37062 and ENA sample accession number: ERS12561822 for biotransformation under anaerobic condition. The drug concentrations were measured over 9 timepoints collected between 0 and 24 hours of incubation by liquid-chromatography-coupled mass spectrometry (LC–MS); conditions: 2 µM
[2] = as §1, with “Z-021” for “Z-023”, “ERS12561820” for “ERS12561822”; conditions: 2 µM
[3] = (§2) The drug is tested on Z-019 corresponding to rat gut metagenome with ENA study accession number: PRJEB37062 and ENA sample accession number: ERS12561818 for biotransformation under anaerobic condition. The drug concentrations were measured over 9 timepoints collected between 0 and 24 hours of incubation by liquid-chromatography-coupled mass spectrometry (LC–MS); conditions: 2 µM
[4] = as §2, with “on Z-016” for “on Z-019”, “to mouse” for “to rat”, “number: ERS12561815” for “number: ERS12561818”; conditions: 2 µM
[5] = as §1, with “Z-010” for “Z-023”, “ERS12561810” for “ERS12561822”; conditions: 2 µM
[6] = as §2, with “on WLS-170” for “on Z-019”, “to human” for “to rat”, “number: ERS12561762” for “number: ERS12561818”; conditions: 2 µM
[7] = as §2, with “on WLS-077” for “on Z-019”, “to human” for “to rat”, “number: ERS12561750” for “number: ERS12561818”; conditions: 2 µM
[8] = as §2, with “on WLS-007” for “on Z-019”, “to human” for “to rat”, “number: ERS12561742” for “number: ERS12561818”; conditions: 2 µM
[9] = human gut metagenome, 24 h, 2 µM
[10] = human gut metagenome, 24 h, 2 µM; remark: listed apart in the source
[11] = human gut metagenome, 24 h, 2 µM; remark: listed apart in the source
[12] = human gut metagenome, 24 h, 2 µM; remark: listed apart in the source
[13] = human gut metagenome, 24 h, 2 µM; remark: listed apart in the source
[14] = human gut metagenome, 24 h, 2 µM; remark: listed apart in the source
[15] = human gut metagenome, 24 h, 2 µM; remark: listed apart in the source
[16] = human gut metagenome, 24 h, 2 µM; remark: listed apart in the source
[17] = human gut metagenome, 24 h, 2 µM; remark: listed apart in the source
[18] = human gut metagenome, 24 h, 2 µM; remark: listed apart in the source
[19] = human gut metagenome, 24 h, 2 µM; remark: listed apart in the source
[20] = human gut metagenome, 24 h, 2 µM; remark: listed apart in the source
Further: call rule not given here.

CCN(C)C(=O)Oc1cccc([C@H](C)N(C)C)c1.O=C(O)C(O)C(O)C(=O)O [RIVASTIGMINE TARTRATE]
Bacterial Biotransformation [1]: Compound NOT metabolized
Bacterial Biotransformation [2]: Compound NOT metabolized
Bacterial Biotransformation [3]: Compound NOT metabolized
Bacterial Biotransformation [4]: Compound NOT metabolized
Bacterial Biotransformation [5]: Compound NOT metabolized
Bacterial Biotransformation [6]: Compound NOT metabolized
Bacterial Biotransformation [7]: Compound NOT metabolized
Bacterial Biotransformation [8]: Compound NOT metabolized
Bacterial Biotransformation [9]: Compound NOT metabolized
Bacterial Biotransformation [10]: Compound NOT metabolized
Bacterial Biotransformation [11]: Compound NOT metabolized
Bacterial Biotransformation [12]: Compound NOT metabolized
Bacterial Biotransformation [13]: Compound NOT metabolized
Bacterial Biotransformation [14]: Compound NOT metabolized
Bacterial Biotransformation [15]: Compound metabolized
Bacterial Biotransformation [16]: Compound NOT metabolized
Bacterial Biotransformation [17]: Compound NOT metabolized
Bacterial Biotransformation [18]: Compound NOT metabolized
Bacterial Biotransformation [19]: Compound NOT metabolized
Bacterial Biotransformation [20]: Compound NOT metabolized

Br.CN1CCC[C@@H]1Cc1c[nH]c2ccc(CCS(=O)(=O)c3ccccc3)cc12 [ELETRIPTAN HYDROBROMIDE]
Bacterial Biotransformation [1]: Compound NOT metabolized
Bacterial Biotransformation [2]: Compound NOT metabolized
Bacterial Biotransformation [3]: Compound NOT metabolized
Bacterial Biotransformation [4]: Compound NOT metabolized
Bacterial Biotransformation [5]: Compound NOT metabolized
Bacterial Biotransformation [6]: Compound metabolized
Bacterial Biotransformation [7]: Compound NOT metabolized
Bacterial Biotransformation [8]: Compound metabolized
Bacterial Biotransformation [9]: Compound NOT metabolized
Bacterial Biotransformation [10]: Compound NOT metabolized
Bacterial Biotransformation [11]: Compound metabolized
Bacterial Biotransformation [12]: Compound NOT metabolized
Bacterial Biotransformation [13]: Compound NOT metabolized
Bacterial Biotransformation [14]: Compound NOT metabolized
Bacterial Biotransformation [15]: Compound NOT metabolized
Bacterial Biotransformation [16]: Compound metabolized
Bacterial Biotransformation [17]: Compound metabolized
Bacterial Biotransformation [18]: Compound metabolized
Bacterial Biotransformation [19]: Compound NOT metabolized
Bacterial Biotransformation [20]: Compound metabolized

CCN(CC)CCNC(=O)c1cc(S(C)(=O)=O)ccc1OC [TIAPRIDE]
Bacterial Biotransformation [1]: Compound NOT metabolized
Bacterial Biotransformation [2]: Compound NOT metabolized
Bacterial Biotransformation [3]: Compound NOT metabolized
Bacterial Biotransformation [4]: Compound NOT metabolized
Bacterial Biotransformation [5]: Compound NOT metabolized
Bacterial Biotransformation [6]: Compound NOT metabolized
Bacterial Biotransformation [7]: Compound NOT metabolized
Bacterial Biotransformation [8]: Compound NOT metabolized
Bacterial Biotransformation [9]: Compound NOT metabolized
Bacterial Biotransformation [10]: Compound NOT metabolized
Bacterial Biotransformation [11]: Compound NOT metabolized
Bacterial Biotransformation [12]: Compound NOT metabolized
Bacterial Biotransformation [13]: Compound NOT metabolized
Bacterial Biotransformation [14]: Compound NOT metabolized
Bacterial Biotransformation [15]: Compound metabolized
Bacterial Biotransformation [16]: Compound NOT metabolized
Bacterial Biotransformation [17]: Compound metabolized
Bacterial Biotransformation [18]: Compound metabolized
Bacterial Biotransformation [19]: Compound NOT metabolized
Bacterial Biotransformation [20]: Compound NOT metabolized

COc1ccc([C@@H]2Sc3ccccc3N(CCN(C)C)C(=O)[C@@H]2OC(C)=O)cc1 [DILTIAZEM]
Bacterial Biotransformation [1]: Compound metabolized
Bacterial Biotransformation [2]: Compound NOT metabolized
Bacterial Biotransformation [3]: Compound NOT metabolized
Bacterial Biotransformation [4]: Compound metabolized
Bacterial Biotransformation [5]: Compound metabolized
Bacterial Biotransformation [6]: Compound metabolized
Bacterial Biotransformation [7]: Compound NOT metabolized
Bacterial Biotransformation [8]: Compound NOT metabolized
Bacterial Biotransformation [9]: Compound NOT metabolized
Bacterial Biotransformation [10]: Compound NOT metabolized
Bacterial Biotransformation [11]: Compound NOT metabolized
Bacterial Biotransformation [12]: Compound metabolized
Bacterial Biotransformation [13]: Compound NOT metabolized
Bacterial Biotransformation [14]: Compound NOT metabolized
Bacterial Biotransformation [15]: Compound metabolized
Bacterial Biotransformation [16]: Compound metabolized
Bacterial Biotransformation [17]: Compound metabolized
Bacterial Biotransformation [18]: Compound metabolized
Bacterial Biotransformation [19]: Compound metabolized
Bacterial Biotransformation [20]: Compound metabolized

Nc1nc(NC2CC2)c2ncn([C@H]3C=C[C@@H](CO)C3)c2n1.Nc1nc(NC2CC2)c2ncn([C@H]3C=C[C@@H](CO)C3)c2n1.O=S(=O)(O)O [ABACAVIR SULFATE]
Bacterial Biotransformation [1]: Compound NOT metabolized
Bacterial Biotransformation [2]: Compound NOT metabolized
Bacterial Biotransformation [3]: Compound NOT metabolized
Bacterial Biotransformation [4]: Compound NOT metabolized
Bacterial Biotransformation [5]: Compound metabolized
Bacterial Biotransformation [6]: Compound metabolized
Bacterial Biotransformation [7]: Compound metabolized
Bacterial Biotransformation [8]: Compound NOT metabolized
Bacterial Biotransformation [9]: Compound NOT metabolized
Bacterial Biotransformation [10]: Compound metabolized
Bacterial Biotransformation [11]: Compound NOT metabolized
Bacterial Biotransformation [12]: Compound NOT metabolized
Bacterial Biotransformation [13]: Compound metabolized
Bacterial Biotransformation [14]: Compound metabolized
Bacterial Biotransformation [15]: Compound metabolized
Bacterial Biotransformation [16]: Compound metabolized
Bacterial Biotransformation [17]: Compound metabolized
Bacterial Biotransformation [18]: Compound metabolized
Bacterial Biotransformation [19]: Compound metabolized
Bacterial Biotransformation [20]: Compound metabolized

CC1Cc2ccccc2N1NC(=O)c1ccc(Cl)c(S(N)(=O)=O)c1 (stereo not given) [INDAPAMIDE]
Bacterial Biotransformation [1]: Compound NOT metabolized
Bacterial Biotransformation [2]: Compound NOT metabolized
Bacterial Biotransformation [3]: Compound NOT metabolized
Bacterial Biotransformation [4]: Compound NOT metabolized
Bacterial Biotransformation [5]: Compound NOT metabolized
Bacterial Biotransformation [6]: Compound NOT metabolized
Bacterial Biotransformation [7]: Compound NOT metabolized
Bacterial Biotransformation [8]: Compound NOT metabolized
Bacterial Biotransformation [9]: Compound NOT metabolized
Bacterial Biotransformation [10]: Compound NOT metabolized
Bacterial Biotransformation [11]: Compound NOT metabolized
Bacterial Biotransformation [12]: Compound NOT metabolized
Bacterial Biotransformation [13]: Compound NOT metabolized
Bacterial Biotransformation [14]: Compound NOT metabolized
Bacterial Biotransformation [15]: Compound NOT metabolized
Bacterial Biotransformation [16]: Compound NOT metabolized
Bacterial Biotransformation [17]: Compound NOT metabolized
Bacterial Biotransformation [18]: Compound NOT metabolized
Bacterial Biotransformation [19]: Compound NOT metabolized
Bacterial Biotransformation [20]: Compound NOT metabolized

O=P1(N(CCCl)CCCl)NCCCO1 (stereo not given) [CYCLOPHOSPHAMIDE ANHYDROUS]
Bacterial Biotransformation [1]: Compound NOT metabolized
Bacterial Biotransformation [2]: Compound NOT metabolized
Bacterial Biotransformation [3]: Compound NOT metabolized
Bacterial Biotransformation [4]: Compound NOT metabolized
Bacterial Biotransformation [5]: Compound NOT metabolized
Bacterial Biotransformation [6]: Compound metabolized
Bacterial Biotransformation [7]: Compound NOT metabolized
Bacterial Biotransformation [8]: Compound NOT metabolized
Bacterial Biotransformation [9]: Compound NOT metabolized
Bacterial Biotransformation [10]: Compound NOT metabolized
Bacterial Biotransformation [11]: Compound NOT metabolized
Bacterial Biotransformation [12]: Compound NOT metabolized
Bacterial Biotransformation [13]: Compound NOT metabolized
Bacterial Biotransformation [14]: Compound metabolized
Bacterial Biotransformation [15]: Compound NOT metabolized
Bacterial Biotransformation [16]: Compound metabolized
Bacterial Biotransformation [17]: Compound metabolized
Bacterial Biotransformation [18]: Compound metabolized
Bacterial Biotransformation [19]: Compound metabolized
Bacterial Biotransformation [20]: Compound metabolized

CN(C)CCOC(C)(c1ccccc1)c1ccccn1.O=C(O)CCC(=O)O (stereo not given) [DOXYLAMINE SUCCINATE]
Bacterial Biotransformation [1]: Compound NOT metabolized
Bacterial Biotransformation [2]: Compound NOT metabolized
Bacterial Biotransformation [3]: Compound NOT metabolized
Bacterial Biotransformation [4]: Compound NOT metabolized
Bacterial Biotransformation [5]: Compound NOT metabolized
Bacterial Biotransformation [6]: Compound NOT metabolized
Bacterial Biotransformation [7]: Compound NOT metabolized
Bacterial Biotransformation [8]: Compound NOT metabolized
Bacterial Biotransformation [9]: Compound NOT metabolized
Bacterial Biotransformation [10]: Compound NOT metabolized
Bacterial Biotransformation [11]: Compound NOT metabolized
Bacterial Biotransformation [12]: Compound NOT metabolized
Bacterial Biotransformation [13]: Compound NOT metabolized
Bacterial Biotransformation [14]: Compound NOT metabolized
Bacterial Biotransformation [15]: Compound NOT metabolized
Bacterial Biotransformation [16]: Compound NOT metabolized
Bacterial Biotransformation [17]: Compound NOT metabolized
Bacterial Biotransformation [18]: Compound NOT metabolized
Bacterial Biotransformation [19]: Compound NOT metabolized
Bacterial Biotransformation [20]: Compound NOT metabolized
